# From PubChem BioAssay (NCI)
#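 Growth conditions: 96-well plates. Treatment: test compound, 48 hours, 5 concentrations. Analysis: linear interpolation between bracketing concentrations; unreached endpoints set to highest concentration. GI50 marks 50% less growth. At the TGI there is no net growth.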
# How the values were obtained:
# Test in all cases: NCI-60 cell line screen, 48 h
# [1] = test system: NCI-H226 lung
# [2] = test system: NCI-H23 lung
# [3] = test system: NCI-H460 lung
# [4] = test system: NCI-H522 lung
# [5] = test system: NCI/ADR-RES ovarian
# [6] = test system: OVCAR-3 ovarian
# [7] = test system: OVCAR-4 ovarian
# [8] = test system: OVCAR-5 ovarian
# [9] = test system: OVCAR-8 ovarian
# [10] = test system: PC-3 prostate
# [11] = test system: RPMI-8226 leukemia
# [12] = test system: SF-268 CNS
# [13] = test system: SF-295 CNS
# [14] = test system: SF-539 CNS
# [15] = test system: SK-MEL-2 melanoma
# [16] = test system: SK-MEL-28 melanoma
# [17] = test system: SK-MEL-5 melanoma
# [18] = test system: SK-OV-3 ovarian
# [19] = test system: SN12C renal
# [20] = test system: SNB-19 CNS
# [21] = test system: SNB-75 CNS
# [22] = test system: SR leukemia
# [23] = test system: SW-620 colon
# [24] = test system: T-47D breast
# [25] = test system: TK-10 renal
# [26] = test system: U251 CNS
# [27] = test system: UACC-257 melanoma
# [28] = test system: UACC-62 melanoma
# [29] = test system: UO-31 renal
smiles,measurement,setting,value
Cc1cc(Nc2ccc3c(c2)OCO3)c2cc3c(cc2n1)OCO3,TGI,[1],16.4 µM
same,GI50,[2],3.93 µM
same,TGI,[2],23.7 µM
same,GI50,[3],2.3 µM
same,TGI,[3],12.3 µM
same,GI50,[4],2.35 µM
same,TGI,[4],10 µM
same,GI50,[5],2.15 µM
same,TGI,[5],18.5 µM
same,GI50,[6],0.701 µM
same,TGI,[6],3.03 µM
same,GI50,[7],5.2 µM
same,TGI,[7],44.4 µM
same,GI50,[8],4.24 µM
same,TGI,[8],41.1 µM
same,GI50,[9],3.13 µM
same,TGI,[9],15.5 µM
same,GI50,[10],1.13 µM
same,TGI,[10],11.5 µM
same,GI50,[11],0.526 µM
same,TGI,[11],3.6 µM
same,GI50,[12],3.69 µM
same,TGI,[12],19.3 µM
same,GI50,[13],0.563 µM
same,TGI,[13],8.85 µM
same,GI50,[14],2.12 µM
same,TGI,[14],6.73 µM
same,GI50,[15],4.54 µM
same,TGI,[15],21.5 µM
same,GI50,[16],1.93 µM
same,TGI,[16],14.1 µM
same,GI50,[17],0.821 µM
same,TGI,[17],14.1 µM
same,GI50,[18],3.22 µM
same,TGI,[18],30.1 µM
same,GI50,[19],4.14 µM
same,TGI,[19],31.3 µM
same,GI50,[20],2.38 µM
same,TGI,[20],20.9 µM
same,GI50,[21],0.766 µM
same,TGI,[21],7.38 µM
same,GI50,[22],0.532 µM
same,TGI,[22],> 84.4 µM
same,GI50,[23],0.756 µM
same,TGI,[23],15.4 µM
same,GI50,[24],4.69 µM
same,TGI,[24],38.6 µM
same,GI50,[25],5.62 µM
same,TGI,[25],32.5 µM
same,GI50,[26],2.8 µM
same,TGI,[26],14.2 µM
same,GI50,[27],3.57 µM
same,TGI,[27],23.4 µM
same,GI50,[28],2.08 µM
same,TGI,[28],16.5 µM
same,GI50,[29],1.63 µM
same,TGI,[29],9.1 µM
